# Measured values taken from paper PMC4627231, “Targeting the sugar metabolism of tumors with a first-in-class 6-phosphofructo-2-kinase (PFKFB4) inhibitor” (Oncotarget, 2015).
# How the values were obtained:
# recombinant PFK-1 = assay: PFK-1 kinase activity; format: biochemical; settings: 10 μM
# [1] = tested on: 2-[18F]-fluoro-2-deoxyglucose uptake by LLC xenografts; assay: FDG uptake by micro-PET in LLC tumors; format: in vivo, C57BL/6 mice; settings: 120 mg/kg by gavage, once, one hour before imaging
# Procedure: (§1) At the end of the experiment, one hour after a single dose of DMSO or 5MPN, animals were euthanized, tumors removed and sections fixed in 10% formaldehyde for immunohistochemistry or snap-frozen in liquid nitrogen for analyses. Subsets of tumor-bearing mice (n=3) were administered a single dose of either DMSO or 5MPN one hour prior to imaging then injected i.p. with 2-[^18F]-fluoro-2-deoxyglucose (FDG, 150μCi, 100 μl) and, 45 min after FDG injection, were anesthetized with 2% isoflurane in oxygen and transferred to a R-4 Rodent Scanner (CTI Concorde Microsystems) micro-positron emission tomograph to capture images as previously described. Regions of interest in the tumors and cerebellum were quantified in quadruplicate and expressed as the mean ± SD of the ratio of tumor:cerebellar FDG uptake. Animal experiments were approved by the University of Louisville Institutional Animal Care and Use Committee.
# [2] = tested on: Large T antigen-immortalized, tamoxifen-inducible PFKFB4-/- fibroblasts; assay: Viable cell count (trypan blue exclusion); format: cell-based, mice; settings: fibroblasts ± 10 μM 4HT, 10 μM 5MPN, 24 hours
# Description: H460, H1299, H441, H522 and A549 non-small cell lung cancer (NSCLC), MDA-MB-231 (breast), LNCaP (prostatic) and HCT116 (colon) adenocarcinoma and Lewis lung carcinoma (LLC) cell lines were obtained from ATCC (authenticated by STR analysis) and were used within 6 months of acquisition. PFKFB4^−/− ear pinna fibroblasts isolated from TamCre/loxP/PFKFB4^−/− mice were immortalized as described previously. Normal bronchial epithelial cells (NHBE) were obtained from Lonza and NHBE cells expressing telomerase, SV40 large T antigen and activated Ras (hT/LT/Ras) were a gift from Dr. B. J. Rollins, Dana Farber Cancer Institute. All cell lines were tested and found negative for mycoplasma (PCR Mycoplasma Detection Kit, ABM). Cell lines were grown in DMEM (A549, LNCaP, MDA-MB-231, LLC and PFKFB4^−/−), RPMI 1640 (H460, H1299, H441, H522) and McCoy's 5A media (HCT116) (all from Invitrogen) containing 10% fetal calf serum (Hyclone). NHBE and hT/LT/Ras cells were grown in BEGM containing SingleQuots (Lonza). All lines were cultured at 37°C in 5% CO2. […]
# Viability was determined using trypan blue exclusion as previously described. […] Cells excluding trypan blue were counted using a standard hemocytometer (Hausser Scientific) to determine total numbers of viable cells. Data are expressed as mean ± SD of three experiments.
# [3] = tested on: H460 human lung adenocarcinoma xenografts; assay: H460 xenograft growth in athymic mice; format: in vivo, BALB/c athymic mice; settings: 120 mg/kg daily by gavage
# Procedure: (§2) For xenograft studies, LLC or H460 cells collected from exponential growth phase culture were washed and resuspended in PBS. Groups of female C57BL/6 mice were injected with LLC cells (n=10 per group, s.c., 1×10^6 cells) and groups of female BALB/c athymic mice (Charles River) were injected with H460 cells (n=10 per group, s.c, 5 × 10^6 cells). Tumor masses were determined in a blinded fashion with Vernier calipers using the formula: mass (mg) = (width, mm)^2 X (length, mm)/2 as previously described. When tumor masses were 150-200 mg, mice were randomized to daily DMSO or 5MPN (in 30% Captisol, 100 μl, by gavage). Tumor measurements and body weights were followed daily. All data are expressed as the mean ± SD of two experiments. Statistical significance was assessed by the two-sample t test (independent variable).
# glycolysis in H460 cells = assay: Glycolysis assay (3H2O from 5-[3H]glucose); format: cell-based, human; settings: 10 μM, 6-72 hours
# Procedure: Cells growing in 6-well plates were incubated in 500 μl of complete medium containing 1 μCi of 5-[^3H]glucose per well for 60 min in 5% CO2 at 37°C. Media was collected, ^3H2O formed via glycolysis from the 5-[^3H]glucose measured and counts normalized as previously described. All data are expressed as the mean ± SD of three experiments. Statistical significance was assessed by the two-sample t test (independent variable).
# [4] = tested on: Lewis lung carcinomas (LLC); assay: Lewis lung carcinoma tumor growth in syngeneic mice; format: in vivo, C57BL/6 mice; settings: 120 mg/kg daily by gavage
# Procedure: as §2
# [5] = tested on: Ki67-positive cells in LLC xenografts; assay: Ki67 immunohistochemistry of LLC tumors; format: in vivo, C57BL/6 mice; settings: oral administration
# Procedure: Five μm mounted sections of formalin-fixed, paraffin-embedded LLC tumor tissues were processed as previously described and then incubated with anti-Ki-67 primary antibody (Abcam) overnight, followed by HRP-linked goat anti-rabbit secondary antibody (1:300, Pierce). Sections were developed with 3,3′-diaminobenzidine tetrahydrochloride and counterstained as previously described. Slides were scanned using a ScanScope XT Digital Slide Scanner (Aperio), data analyzed with the positive pixel count algorithm (ImageScope, Aperio) and a minimum of 5 fields (20x magnification) were quantified for each tumor section. The data are depicted as % positive pixels/total pixels ± SD.
# ATP in H460 cells = assay: Intracellular ATP measurement; format: cell-based, human; settings: 10 μM, 6-72 hours
# Procedure: Cells were lysed and intracellular ATP determined as described previously. All data are expressed as the mean ± SD of three experiments. Statistical significance was assessed by the two-sample t test (independent variable).
# [6] = tested on: intratumoral F2,6BP, LLC xenografts; assay: Intratumoral F2,6BP in LLC tumors; format: in vivo, C57BL/6 mice; settings: after 10 days of treatment, one hour after dose by gavage
# Procedure: Cells or tissues were prepared as previously described and F2,6BP content measured using a coupled enzyme reaction following the method of Van Schaftingen et al and normalized to total cellular protein measured by the bicinchoninic acid assay (Thermo Scientific). All data are expressed as the mean ± SD of three experiments. Statistical significance was assessed by the two-sample t test (independent variable).
# as §1
# [7] = tested on: normal human bronchial epithelial (NHBE) cells; assay: Viable cell count (trypan blue exclusion); format: cell-based; settings: live cells counted at 48 hours
# Procedure: Viability was determined using trypan blue exclusion as previously described. Cells were incubated in 20% trypan blue (Sigma) for 5 minutes. Cells excluding trypan blue were counted using a standard hemocytometer (Hausser Scientific) to determine total numbers of viable cells. Data are expressed as mean ± SD of three experiments.
# [8] = tested on: panel of 97 protein kinases; assay: KINOMEscan active-site dependent competition binding assay; settings: 10 μM, data not shown
# Procedure: The fructose-6-phosphate kinase activity of human recombinant PFKFB4 and human recombinant PFKFB3 in the presence of DMSO ± indicated concentrations of 5MPN was assayed as previously described. The activity of 5MPN against 97 kinases was examined using a commercially available active-site dependent competition binding assay core service (KINOMEscanEDGE) that quantifies the capacity of test agents to compete with an immobilized, active-site directed ligand using a DNA-tagged kinase and immobilized ligand and compound.
structure (smiles),measurement,setting,value
"COc1cccc2c(NCCCCCO[N+](=O)[O-])ccnc12 [Compound 5MPN, 5-(n-(8-methoxy-4-quinolyl)amino)pentyl nitrate]",inhibition of PFK-1 kinase activity,recombinant PFK-1,no inhibition of kinase activity
same,2-[18F]-fluoro-2-deoxyglucose uptake (positron emission tomography),[1],marked reduction
same,effect of genomic deletion of Pfkfb4 on anti-proliferative effect,[2],sensitized
same,body weight,[3]; H460-bearing BALB/c athymic mice,without affecting body weight
same,tumor growth,[3]; H460 xenografts in BALB/c athymic mice,suppressed the growth
same,effect on glycolysis,glycolysis in H460 cells,reduced
same,tumor growth,[4]; LLC in syngeneic C57BL/6 mice,suppressed the growth
same,body weight,[4]; LLC-bearing C57BL/6 mice,without affecting body weight
same,Ki67-positive cells,[5],reduction
same,effect on ATP,ATP in H460 cells,reduced
same,"intratumoral F2,6BP",[6],marked reduction
same,effect on cell growth,[7],virtually unaffected
same,inhibition of a panel of 97 protein kinases,[8],not inhibited
